Assay results taken from patent US9493423B2, “Compounds capable of inhibiting voltage gated calcium ion channel, and pharmaceutical compositions comprising the same” (KOREA INSTITUTE OF SCIENCE AND TECHNOLOGY, priority 2015, dated 2016).

Columns and labels:
Type in all cases: cell-based
[1] = biological target: T1, α1G T-type calcium ion channel (Homo sapiens, UniProt O43497); test: Antagonistic activity against T-type calcium ion channel, α1G (FDSS6000 screening / whole cell patch clamp in HEK293 cells); details: HEK293 cells expressing α1G
T1 construct: host or cells: HEK293 stably expressing α1G and Kir2.1, selected with G-418
T1 sequence (O43497 whole entry): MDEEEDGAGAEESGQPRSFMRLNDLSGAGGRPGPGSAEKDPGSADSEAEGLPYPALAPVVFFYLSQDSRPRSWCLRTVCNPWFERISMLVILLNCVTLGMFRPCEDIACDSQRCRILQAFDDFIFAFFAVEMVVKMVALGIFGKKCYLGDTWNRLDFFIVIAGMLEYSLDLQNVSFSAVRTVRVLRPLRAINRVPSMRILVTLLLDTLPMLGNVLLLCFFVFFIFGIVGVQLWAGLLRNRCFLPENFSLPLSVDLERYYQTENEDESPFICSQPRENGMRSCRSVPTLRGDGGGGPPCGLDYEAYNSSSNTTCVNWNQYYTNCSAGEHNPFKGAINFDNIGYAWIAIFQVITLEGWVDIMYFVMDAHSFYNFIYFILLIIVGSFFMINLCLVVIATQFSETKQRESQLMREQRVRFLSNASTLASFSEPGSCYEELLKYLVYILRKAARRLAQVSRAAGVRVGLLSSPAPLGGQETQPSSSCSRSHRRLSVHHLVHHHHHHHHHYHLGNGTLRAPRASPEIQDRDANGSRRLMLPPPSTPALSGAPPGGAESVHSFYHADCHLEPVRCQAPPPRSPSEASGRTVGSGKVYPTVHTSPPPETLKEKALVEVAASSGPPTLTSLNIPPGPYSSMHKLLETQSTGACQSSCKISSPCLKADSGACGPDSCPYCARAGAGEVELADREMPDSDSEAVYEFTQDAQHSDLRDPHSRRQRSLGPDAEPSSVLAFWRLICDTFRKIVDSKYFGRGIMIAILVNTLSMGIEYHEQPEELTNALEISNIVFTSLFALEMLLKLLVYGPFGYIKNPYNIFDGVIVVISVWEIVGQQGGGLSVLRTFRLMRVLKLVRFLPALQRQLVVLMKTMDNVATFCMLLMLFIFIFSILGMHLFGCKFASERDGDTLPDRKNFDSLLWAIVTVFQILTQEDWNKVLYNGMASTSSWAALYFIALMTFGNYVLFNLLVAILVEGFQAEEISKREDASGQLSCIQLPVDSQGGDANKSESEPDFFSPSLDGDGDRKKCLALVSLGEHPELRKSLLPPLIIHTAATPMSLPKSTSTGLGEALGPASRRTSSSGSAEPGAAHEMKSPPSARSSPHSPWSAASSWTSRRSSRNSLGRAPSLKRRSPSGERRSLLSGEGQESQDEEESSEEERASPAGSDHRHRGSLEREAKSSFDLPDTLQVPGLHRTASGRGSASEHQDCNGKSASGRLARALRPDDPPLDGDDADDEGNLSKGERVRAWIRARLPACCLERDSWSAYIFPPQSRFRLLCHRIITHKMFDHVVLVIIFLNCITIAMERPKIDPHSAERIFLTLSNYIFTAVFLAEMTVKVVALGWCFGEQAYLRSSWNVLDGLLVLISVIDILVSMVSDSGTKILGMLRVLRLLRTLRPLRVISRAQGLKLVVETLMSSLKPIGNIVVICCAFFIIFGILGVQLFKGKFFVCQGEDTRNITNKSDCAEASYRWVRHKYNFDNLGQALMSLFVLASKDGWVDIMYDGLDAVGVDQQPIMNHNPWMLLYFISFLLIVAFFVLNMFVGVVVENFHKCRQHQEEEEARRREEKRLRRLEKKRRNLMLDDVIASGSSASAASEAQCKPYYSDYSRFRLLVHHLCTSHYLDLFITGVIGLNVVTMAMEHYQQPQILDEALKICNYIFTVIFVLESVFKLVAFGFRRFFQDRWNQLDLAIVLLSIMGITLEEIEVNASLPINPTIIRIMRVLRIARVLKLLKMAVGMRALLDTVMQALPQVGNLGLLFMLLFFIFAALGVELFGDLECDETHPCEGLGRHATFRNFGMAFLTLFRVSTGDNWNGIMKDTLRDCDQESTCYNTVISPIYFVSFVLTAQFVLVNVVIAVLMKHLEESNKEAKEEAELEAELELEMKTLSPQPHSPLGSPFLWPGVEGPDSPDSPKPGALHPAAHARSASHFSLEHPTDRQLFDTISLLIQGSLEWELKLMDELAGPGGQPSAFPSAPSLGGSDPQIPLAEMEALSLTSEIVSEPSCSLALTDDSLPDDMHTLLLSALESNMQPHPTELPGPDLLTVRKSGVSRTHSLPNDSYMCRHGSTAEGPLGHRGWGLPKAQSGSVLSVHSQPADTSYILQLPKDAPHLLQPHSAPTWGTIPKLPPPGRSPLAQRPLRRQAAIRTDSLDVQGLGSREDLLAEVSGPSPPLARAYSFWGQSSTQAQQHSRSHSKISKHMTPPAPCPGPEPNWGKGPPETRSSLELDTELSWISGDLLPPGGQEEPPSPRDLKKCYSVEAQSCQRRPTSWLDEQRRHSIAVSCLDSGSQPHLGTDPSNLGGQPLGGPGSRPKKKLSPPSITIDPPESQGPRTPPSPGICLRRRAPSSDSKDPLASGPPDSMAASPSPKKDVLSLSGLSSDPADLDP
Procedure: The novel compounds, represented by Chemical Formula 1, of the present invention were assayed for antagonistic activity against T-type calcium ion channels as follows.
After being synthesized, the compounds were primarily screened for inhibitory activity against T-type channels using a high-throughput screening device FDSS6000, and selection was made of the synthetic compounds that blocked T-type channels at an inhibitory rate of 40% or higher. In a secondary screening process, the selected compounds were examined for the effective inhibitory concentration IC50 by measuring Ca^2+ potentials in human HEK293 cells.
Using Titertek Multidrop Plate Dispenser, HEK293 cell line cells that stably expressed alG T-type calcium ion channel and Kir2.1 (α1G cell line: KCTC 10519BP, Korean Human Gene Bank of the Korea Research Institute of Bioscience and Biotechnology) were seeded at a density of 4×10^4 cells/well into 96-well plates that were treated with poly-L-lysine (0.05 mg/ml) 12˜24 hrs before activity screening. On the day of test, the cells adherent to the 96-well plates were washed three times with a HEPES buffer (150 mM NaCl, 5 mM KCl, 1 mM MgCl2, 2 mM CaCl2, 10 mM HEPES, 10 mM glucose, pH 7.4) using a 96-well plate washer (Bio Tek), and then stained with a fluorescent dye by treatment with a HEPES containing 5 μM fluo-3/AM and 0.001% Pluronic F-127 for 1 hr at room temperature. Again, the cells were washed twice with a HEPES buffer. Ten minutes before reading on FDSS6000, the cells were washed once with a HEPES buffer containing 10 mM CaCl2, and the final volume per well was adjusted to 81 μL. Separately from the 96-well plates in which cells were contained, two 96-well plates were prepared so as to contain KCl (final concentration 75 mM), which activates T-type calcium ion channels, and blocker drugs therein. Since most cell-based HTS devices, although provided with a liquid application system necessary for drug infusion, have no liquid absorption systems, blocker drugs to be searched for and KCl were individually prepared into a 5-fold higher concentration in 27 μL of 10 mM CaCl2 HEPES. The concentration was 1/5 diluted into a final volume of 135 μL in each well before measurement. For the FDSS6000 measurements, cells were pre-incubated with drugs for 75 seconds after the 20-sec baseline recordings, and a change in intracellular calcium concentration induced by KCl was measured. The percent inhibition by a test compound was calculated as integrated values of 340/380 fluorescent ratio of untreated and drug-treated cells.
For accurate calcium-imaging, the light source of 4 xenon lamps in FDSS6000 were irradiated to make the cells exposed selectively to the excitation wavelength (340 nm and 380 nm) by computer-controlled filter wheel. Data was obtained at regular intervals of each 1.23 second. The emitter fluorescence light flew in through a long-pass filter was obtained as an average 340/380 ratio value for each well in the 96-wells by using CCD camera and digital fluorescence analyzer in FDSS6000. All image data and analyses were obtained by using FDSS6000-exclusive program provide from Hamamatsu Photonics.
Dulbecco's modified Eagle's medium (DMEM) supplemented with 10% fetal bovine serum (FBS) and 1% penicillin/streptomycin (v/v) was employed. The cells were cultured at 36.5° C. in a humidified condition of 95% air/5% CO2 in an incubator. The medium was refreshed every 3 or 4 days while the cells were sub-cultured every week, with the growth of only α1G T-type calcium ion channel-expressing cells in the presence of G-418 (0.5 mg/mL). The recording to the cells used in the T-type calcium channel activity analysis was conducted 2-7 days after the cells were culturing on a cover slip coated with poly-L-lysine (0.5 mg/mL) when conducting every sub-culture. For analysis at a single cell level, the T-type calcium channel current was measured by an electrophysiological whole cell patch clamp method using EPC-9 amplifier (HEKA, German). […]

[2] = tested on: HT-1080 (Human Fibroblastoma); test: SRB (sulforhodamine B) assay of cancer cell growth, HT-1080; set-up: dose or concentration left out as unconfirmed; details: 48 hrs incubation
Procedure: (§1) For this assay, the cells at passages were separated from the surfaces of well plates using a trypsin-EDTA solution, and seeded at a density of 5×10^3 cells/well into 96-well plates. After 24 hrs of incubation in a CO2 incubator, the medium was removed. A 4-fold dilution of each of the compounds was added in an amount of 100 μL to each well, and the cells were incubated for 48 hrs. The cells were fixed by adding 100 μL of formalin to each well, washed five times with distilled water, dried at room temperature. The cells in each well were stained with 100 μL of 0.4% SRB for 30 min. at room temperature, washed five times with 1% acetic acid, and dried at room temperature. […] The optical density was read at 540 nm.
(§2) To calculate pharmaceutical efficacy of test compounds in cancer cells, GI50 was calculated according to the following Equation 1 or 2: […]
(§3) (wherein T0 is the number of cells before the addition of a test compound, and T2 is the number of cells after 48 hrs of incubation in the presence of a test compound)
(§4) The inhibition of cancer cell growth by the test compound (% inhibition) was determined by data regression using the Lotus program from the values calculated according to Equation 1, and the IC50 value was calculated from the % inhibition.

[3] = tested on: U87-MG (Human Glioma); test: SRB (sulforhodamine B) assay of cancer cell growth, U87-MG; set-up: dose or concentration left out as unconfirmed; details: 48 hrs incubation
Procedure: as §1, §2, §3, §4

[4] = tested on: KYSE410 (Human Esophageal Carcinoma); test: SRB (sulforhodamine B) assay of cancer cell growth, KYSE410; set-up: dose or concentration left out as unconfirmed; details: 48 hrs incubation
Procedure: as §1, §2, §3, §4

[5] = tested on: LNCap (Human Prostate Carcinoma); test: SRB (sulforhodamine B) assay of cancer cell growth, LNCap; set-up: dose or concentration left out as unconfirmed; details: 48 hrs incubation
Procedure: as §1, §2, §3, §4

Row | inhibition at 10 µM [1] | Compound | further results
1 | 45.1% | CC(C)Cc1cc(CNS(=O)(=O)c2c(F)cccc2F)nn1-c1ccccc1 [Compound 13, N-[(5-Isobutyl-1-phenyl-1H-pyrazol-3-yl)methyl]-2,6-difluorobenzenesulfonamide] | 
2 |  | CC(C)(C)n1nc(CN2Cc3ccccc3S2(=O)=O)cc1-c1ccc(C2CCCCC2)cc1 [Compound 36, 2-[{1-(tert-Butyl)-5-(4-cyclohexylphenyl)-1H-pyrazol-3-yl}methyl]-2,3-dihydro[d]isothiazole 1,1-dioxide] | Inhibition % α1G (10 μM) [1]: 45.62%
3 |  | CC(C)Cc1cc(CN2Cc3ccccc3S2(=O)=O)nn1-c1ccc(F)cc1 [Compound 30, 2-[{1-(4-Fluorophenyl)-5-isobutyl-1H-pyrazol-3-yl}methyl]-2,3-dihydro[d]isothiazole 1,1-dioxide] | Inhibition % α1G (10 μM) [1]: 70.81%
4 | 65.7% | CC(C)Cc1cc(CNS(=O)(=O)Cc2ccccc2)nn1-c1ccccc1 [Compound 7, N-[(5-Isobutyl-1-phenyl-1H-pyrazol-3-yl)methyl]benzylsulfonamide] | 
5 | 61.4% | CC(C)Cc1cc(CNS(=O)(=O)c2ccccc2)nn1-c1ccccc1 [Compound 1, N-[(5-Isobutyl-1-phenyl-1H-pyrazol-3-yl)methyl]benzenesulfonamide] | 
6 |  | Cc1ccc(F)c(S(=O)(=O)NCc2cc(CC(C)C)n(-c3ccccc3)n2)c1 [Compound 11, N-[(5-Isobutyl-1-phenyl-1H-pyrazol-3-yl)methyl]-(2-fluoro-5-methyl)benzenesulfonamide] | Inhibition % α1G (10 μM) [1]: 54.86%; Inhibition % for Cancer Cell HT1080 [2]: 57.56%; Inhibition % for Cancer Cell U87-MG [3]: 34.40%; Inhibition % for Cancer Cell KYSE410 [4]: 47.30%; Inhibition % for Cancer Cell LNCap [5]: 71.41%
7 | 57.6% | CC(C)Cc1cc(CNS(=O)(=O)c2cccc(Cl)c2)nn1-c1ccccc1 [Compound 3, N-[(5-Isobutyl-1-phenyl-1H-pyrazol-3-yl)methyl]-3-chlorobenzenesulfonamide] | 
8 |  | CC(C)Cc1cc(CN2Cc3ccccc3S2(=O)=O)nn1C(C)(C)C [Compound 29, 2-[{1-(tert-Butyl)-5-isobutyl-1H-pyrazol-3-yl}methyl]-2,3-dihydro[d]isothiazole 1,1-dioxide] | Inhibition % α1G (10 μM) [1]: 60.62%
9 | 45.6% | CC(C)Cc1cc(CNS(=O)(=O)c2ccccc2)nn1-c1ccc(F)cc1 [Compound 20, N-[(5-Isobutyl-1-(4-fluorophenyl)-1H-pyrazol-3-yl)methyl]benzenesulfonamide] | 
10 | 64.1% | CC(C)Cc1cc(CNS(=O)(=O)c2cccc(F)c2)nn1-c1ccccc1 [Compound 2, N-[(5-Isobutyl-1-phenyl-1H-pyrazol-3-yl)methyl]-3-fluorobenzenesulfonamide] | 
11 | 74.2% | Cc1c(CNS(=O)(=O)c2ccc3ccccc3c2)nn(-c2ccccc2)c1CC(C)C [Compound 16, N-[(5-Isobutyl-4-methyl-1-phenyl-1H-pyrazol-3-yl)methyl]naphthalene-2-sulfonamide] | 
12 | 29.8% | CC(C)Cc1cc(CNS(=O)(=O)c2cccc3cccnc23)nn1-c1ccccc1 [Compound 10, N-[(5-Isobutyl-1-phenyl-1H-pyrazol-3-yl)methyl]quinoline-8-sulfonamide] | 
13 | 70.5% | Cc1c(CNS(=O)(=O)c2ccccc2)nn(-c2ccccc2)c1CC(C)C [Compound 15, N-[(5-Isobutyl-4-methyl-1-phenyl-1H-pyrazol-3-yl)methyl]benzenesulfonamide] | 
14 | 67.9% | CC(C)Cc1cc(CN2Cc3ccccc3S2(=O)=O)nn1-c1ccccc1 [Compound 28, 2-((5-Isobutyl-1-phenyl-1H-pyrazol-3-yl)methyl)-2,3-dihydrobenzo[d]isothiazole-1,1-dioxide] | 
15 | 57.3% | Cc1ccc(S(=O)(=O)NCc2cc(CC(C)C)n(-c3ccccc3)n2)cc1 [Compound 4, N-[(5-Isobutyl-1-phenyl-1H-pyrazol-3-yl)methyl]-4-methylbenzenesulfonamide] | 
